The target of one data set is T1, FGFR1 (Homo sapiens, UniProt P11362).
T1 construct: purchased Invitrogen
As to the kind of experiment: Isolated enzyme FRET-based Z-Lyte kinase inhibition assay. Format: biochemical. As to conditions: means from 3 independent experiments; read-out: Isolate Enzyme Inhibition IC50, FGFR1. Here is the method: (§1) FGFR1-4 and the Z-Lyte Kinase Assay Kit were purchased from Invitrogen. The concentration gradients from 5.1×10^−11 to 1.0×10^−6 mol/L were used for all the test compounds. The experiments were performed according to the instructions of the manufacturer.
(§2) FGFR1-4 isolated enzyme activity was determined using the FRET-based Z-Lyte kinase inhibition assay. The data are the means from 3 independent experiments.

Another data set concerns the target T2, FGFR2 (Homo sapiens, UniProt P21802).
T2 construct: purchased Invitrogen
Described as above. Format: biochemical. The following applies: means from 3 independent experiments; read-out: Isolate Enzyme Inhibition IC50, FGFR2. As to the method:
as §1, §2

A further data set deals with T3, FGFR3 (Homo sapiens, UniProt P22607).
T3 construct: purchased Invitrogen
Described as above. It is filed as biochemical. The following applies: means from 3 independent experiments; read-out: Isolate Enzyme Inhibition IC50, FGFR3. Here is the method: as §1, §2

In data set [1] the test system is FGFR3 in SW780 cells (phospho-ERK1/2). As to the kind of experiment: Drug washout Western blot assay, SW780 cells. Format: cell-based. As to conditions: SW780; 30 min exposure, 100 nM, with and without washout. For orientation: Immunoblotting shows a protein as a band on a membrane.
Data set [2] has as its system FGFR1 in H520 cells (phospho-ERK1/2). As to the kind of experiment: Drug washout Western blot assay, H520 cells. Format: cell-based. The following applies: H520; 30 min exposure, 100 nM, with and without washout.
The next data set relates to SUM52 cells. As to the kind of experiment: Oxic and anoxic anti-proliferative activity of the prodrugs.

Where two headings read alike, the source gives them in different places.

These results are taken from patent US11192890B2, “FGFR kinase inhibitors and pharmaceutical uses” (AUCKLAND UNISERVICES LIMITED, priority 2017, dated 2021).

The term IC50 denotes the midpoint of a concentration-inhibition curve. As a reminder, the melting point is the temperature of the solid-liquid transition.

T2 sequence (P21802 22-821): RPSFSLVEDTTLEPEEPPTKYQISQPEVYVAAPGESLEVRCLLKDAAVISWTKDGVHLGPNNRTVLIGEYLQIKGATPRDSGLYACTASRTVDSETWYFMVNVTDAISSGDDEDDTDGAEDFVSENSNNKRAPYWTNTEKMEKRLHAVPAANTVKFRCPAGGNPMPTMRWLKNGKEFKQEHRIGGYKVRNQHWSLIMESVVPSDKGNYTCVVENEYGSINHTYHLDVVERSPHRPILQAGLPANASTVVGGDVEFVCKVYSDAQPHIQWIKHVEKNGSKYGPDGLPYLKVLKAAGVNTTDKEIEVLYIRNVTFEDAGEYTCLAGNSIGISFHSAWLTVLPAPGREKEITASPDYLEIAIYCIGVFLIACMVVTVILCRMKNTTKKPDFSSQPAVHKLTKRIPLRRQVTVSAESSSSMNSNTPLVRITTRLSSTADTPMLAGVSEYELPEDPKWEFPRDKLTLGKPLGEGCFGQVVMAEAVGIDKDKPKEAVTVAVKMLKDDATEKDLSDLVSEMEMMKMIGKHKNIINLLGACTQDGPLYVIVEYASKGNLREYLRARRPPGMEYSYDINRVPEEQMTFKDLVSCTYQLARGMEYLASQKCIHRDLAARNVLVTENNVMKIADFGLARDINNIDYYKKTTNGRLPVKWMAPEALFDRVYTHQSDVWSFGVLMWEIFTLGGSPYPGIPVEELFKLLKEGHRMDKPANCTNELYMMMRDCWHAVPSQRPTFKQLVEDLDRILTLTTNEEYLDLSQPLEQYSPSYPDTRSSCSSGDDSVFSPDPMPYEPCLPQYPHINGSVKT
T3 sequence (P22607 23-806): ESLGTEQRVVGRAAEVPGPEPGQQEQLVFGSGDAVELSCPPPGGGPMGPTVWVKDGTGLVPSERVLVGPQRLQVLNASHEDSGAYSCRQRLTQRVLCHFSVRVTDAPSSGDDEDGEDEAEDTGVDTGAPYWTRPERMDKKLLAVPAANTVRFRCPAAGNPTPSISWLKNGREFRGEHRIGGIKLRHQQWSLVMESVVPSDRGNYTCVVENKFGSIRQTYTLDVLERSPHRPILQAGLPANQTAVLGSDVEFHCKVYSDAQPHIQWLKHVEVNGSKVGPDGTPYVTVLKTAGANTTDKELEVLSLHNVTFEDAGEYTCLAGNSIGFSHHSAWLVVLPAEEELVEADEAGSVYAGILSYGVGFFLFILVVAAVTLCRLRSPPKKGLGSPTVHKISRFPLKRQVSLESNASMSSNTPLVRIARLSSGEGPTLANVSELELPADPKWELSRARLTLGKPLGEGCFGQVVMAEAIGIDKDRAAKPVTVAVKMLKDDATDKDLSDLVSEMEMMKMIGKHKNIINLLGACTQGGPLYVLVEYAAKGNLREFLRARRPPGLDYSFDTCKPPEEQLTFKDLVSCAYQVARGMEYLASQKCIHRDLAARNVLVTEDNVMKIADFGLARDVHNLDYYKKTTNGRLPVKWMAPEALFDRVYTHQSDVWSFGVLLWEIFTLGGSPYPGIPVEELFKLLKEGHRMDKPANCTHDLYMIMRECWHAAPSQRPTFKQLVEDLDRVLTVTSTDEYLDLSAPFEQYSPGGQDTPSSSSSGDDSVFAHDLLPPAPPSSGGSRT
T1 sequence (P11362 22-822): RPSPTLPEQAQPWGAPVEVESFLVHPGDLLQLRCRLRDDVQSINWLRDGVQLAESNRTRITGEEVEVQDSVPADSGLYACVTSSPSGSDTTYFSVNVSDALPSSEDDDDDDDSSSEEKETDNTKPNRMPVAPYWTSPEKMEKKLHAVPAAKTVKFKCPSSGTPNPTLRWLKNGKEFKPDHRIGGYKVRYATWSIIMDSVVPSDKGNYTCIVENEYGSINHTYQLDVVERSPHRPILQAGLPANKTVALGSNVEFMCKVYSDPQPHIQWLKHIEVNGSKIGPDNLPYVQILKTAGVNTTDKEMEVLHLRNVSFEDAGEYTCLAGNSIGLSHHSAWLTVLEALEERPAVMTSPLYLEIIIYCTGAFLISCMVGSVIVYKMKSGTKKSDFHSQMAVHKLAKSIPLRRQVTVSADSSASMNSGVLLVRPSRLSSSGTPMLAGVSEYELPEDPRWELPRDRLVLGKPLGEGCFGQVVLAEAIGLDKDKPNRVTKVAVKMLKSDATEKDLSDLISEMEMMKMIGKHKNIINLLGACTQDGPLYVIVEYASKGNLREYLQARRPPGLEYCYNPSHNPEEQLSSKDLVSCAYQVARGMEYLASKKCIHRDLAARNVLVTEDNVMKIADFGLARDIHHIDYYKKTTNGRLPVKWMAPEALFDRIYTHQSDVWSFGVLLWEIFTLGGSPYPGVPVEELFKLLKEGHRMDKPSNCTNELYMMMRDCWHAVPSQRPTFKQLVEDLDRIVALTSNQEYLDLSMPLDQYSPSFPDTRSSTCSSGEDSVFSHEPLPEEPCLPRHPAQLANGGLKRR

For the molecule `COc1cc(OC)c(Cl)c(-c2cc3cnc(NCC4CCOCC4)nc3n(C3CCN(C(=O)/C=C/CN(C)C)CC3)c2=O)c1Cl` [Compound 137, (E)-6-(2,6-dichloro-3,5-dimethoxyphenyl)-8-(1-(4-(dimethylamino)but-2-enoyl)piperidin-4-yl)-2-(((tetrahydro-2H-pyran-4-l)methyl)amino)pyrido[2,3-d]pyrimidin-7(8H)-one], the IC50 came out at 0.7 nM at FGFR1, 1.8 nM at FGFR2 and 6.2 nM on FGFR3. The “reversible or irreversible inhibition of FGFR3 in cells” value in data set [1] is on record as “potent reversible inhibitors”.

Take `COc1cc(OC)c(Br)c(-c2cc3cnc(NC(C)C)nc3n(C3CCN(C(=O)/C=C/CN(C)C)CC3)c2=O)c1Br` [Compound 153, (E)-6-(2,6-dibromo-3,5-dimethoxyphenyl)-8-(1-(4-(dimethylamino)but-2-enoyl)piperidin-4-yl)-2-(isopropylamino)pyrido[2,3-d]pyrimidin-7(8H)-one]: the IC50 stood at 0.8 nM at FGFR1, 1 nM at FGFR2 and 7.6 nM at FGFR3. Further, in data set [2], the “reversible or irreversible inhibition of FGFR1 in cells” value was “potent irreversible inhibitors”.

As to `COc1cc(OC)c(Cl)c(N2Cc3cnc(Nc4ccccc4)nc3N(C3CCN(C(=O)/C=C/C[N+](C)(C)Cc4c([N+](=O)[O-])ncn4C)CC3)C2=O)c1.[Br-]` [Compound 217, (E)-4-(4-(3-(2-chloro-3,5-dimethoxyphenyl)-2-oxo-7-(phenylamino)-3,4-dihydropyrimido[4,5-d]pyrimidin-1(2H)-yl)piperidin-1-yl)-N,N-dimethyl-N-((1-methyl-4-nitro-1H-imidazol-5-yl)methyl)-4-oxobut-2-en-1-aminium bromide], the melting point was in the range of 181 to 184 °C. For the same molecule, the “Hypoxic Cytotoxicity Ratio (HCR), SUM52” value with SUM52 cells (ratio of oxic and anoxic IC50) was determined as 7. Further, the half-inhibitory concentration (IC50) in the data set with SUM52 cells (read-out: Cellular Anti-proliferative IC50, SUM52, Anoxic, 4 hours of anoxia, remainder of assay oxic) turned out to be 4 nM. Moreover, the IC50 in the data set on SUM52 cells (read-out: Cellular Anti-proliferative IC50, SUM52, Oxic, oxic conditions) stood at 24 nM.

`COc1cc(OC)c(Cl)c(N2Cc3cnc(Nc4cccnc4)nc3N(C3CCN(C(=O)/C=C/CN(C)C)CC3)C2=O)c1Cl` [Compound 158, (E)-3-(2,6-dichloro-3,5-dimethoxyphenyl)-1-(1-(4-(dimethylamino)but-2-enoyl)piperidin-4-yl)-7-(pyridin-3-ylamino)-3,4-dihydropyrimido[4,5-d]pyrimidin-2(1H)-one] yielded a melting point of 207 to 209 °C.

With `CNc1ncc2c(n1)N(C1CCN(C(=O)/C=C/CN3CCOCC3)CC1)C(=O)N(c1c(Cl)c(OC)cc(OC)c1Cl)C2` [Compound 123, (E)-3-(2,6-dichloro-3,5-dimethoxyphenyl)-7-(methylamino)-1-(1-(4-morpholinobut-2-enoyl)piperidin-4-yl)-3,4-dihydropyrimido[4,5-d]pyrimidin-2(1H)-one], the IC50 at FGFR1 is 0.7 nM; at FGFR2, 2.7 nM; at FGFR3, 8.3 nM. Further, in data set [1], the “reversible or irreversible inhibition of FGFR3 in cells” value is given as “potent reversible inhibitors”.

With `COc1cc(OC)c(Cl)c(-c2cc3cnc(Nc4ccccc4)cc3n(C3CCN(C(=O)/C=C/CN(C)C)CC3)c2=O)c1Cl` [Compound 232, (E)-3-(2,6-dichloro-3,5-dimethoxyphenyl)-1-(1-(4-(dimethylamino)but-2-enoyl)piperidin-4-yl)-7-(phenylamino)-1,6-naphthyridin-2(1H)-one], the melting point is 230 to 233 °C.

In turn, `COc1cc(OC)c(Br)c(-c2cc3cnc(NC(C)C)cc3n(C3CCN(C(=O)/C=C/CN(C)C)CC3)c2=O)c1Br` [Compound 155, (E)-3-(2,6-dibromo-3,5-dimethoxyphenyl)-1-(1-(4-(dimethylamino)but-2-enoyl)piperidin-4-yl)-7-(isopropylamino)-1,6-naphthyridin-2(1H)-one] yielded a melting point of 251 to 254 °C.

For the molecule `CNc1cc2c(cn1)cc(-c1c(Cl)c(OC)cc(OC)c1Cl)c(=O)n2C1CCN(C(=O)/C=C/CN(C)C)CC1` [Compound 148, (E)-3-(2,6-dichloro-3,5-dimethoxyphenyl)-1-(1-(4-(dimethylamino)but-2-enoyl)piperidin-4-yl)-7-(methylamino)-1,6-naphthyridin-2(1H)-one], the melting point lay in the range of 209 to 212 °C.

Turning to `COc1cc(OC)c(Cl)c(-c2cc3cnc(Nc4ccccc4)nc3n(C3CCN(C(=O)/C=C/CN(C)C)CC3)c2=O)c1Cl` [Compound 138, (E)-6-(2,6-dichloro-3,5-dimethoxyphenyl)-8-(1-(4-(dimethylamino)but-2-enoyl)piperidin-4-yl)-2-(phenylamino)pyrido[2,3-d]pyrimidin-7(8H)-one], the IC50 was determined as 1.1 nM at FGFR1, 1.1 nM at FGFR2 and 5.1 nM at FGFR3. The “reversible or irreversible inhibition of FGFR1 in cells” value in data set [2] was “potent irreversible inhibitors”.

In turn, `COc1cc(OC)c(Cl)c(N2Cc3cnc(Nc4ccncc4)nc3N(C3CCN(C(=O)/C=C/CN(C)C)CC3)C2=O)c1Cl` [Compound 159, (E)-3-(2,6-dichloro-3,5-dimethoxyphenyl)-1-(1-(4-(dimethylamino)but-2-enoyl)piperidin-4-yl)-7-(pyridin-4-ylamino)-3,4-dihydropyrimido[4,5-d]pyrimidin-2(1H)-one] gave a melting point of more than 300 °C.

`COc1cc(OC)c(Cl)c(N2Cc3cnc(Nc4ccccn4)nc3N(C3CCN(C(=O)/C=C/CN(C)C)CC3)C2=O)c1Cl` [Compound 157, (E)-3-(2,6-dichloro-3,5-dimethoxyphenyl)-1-(1-(4-(dimethylamino)but-2-enoyl)piperidin-4-yl)-7-(pyridin-2-ylamino)-3,4-dihydropyrimido[4,5-d]pyrimidin-2(1H)-one] yielded a melting point of 224 to 227 °C.

`COc1cc(OC)c(Cl)c(-c2cc3cnc(NC(C)C)cc3n(C3CCN(C(=O)/C=C/CN(C)C)CC3)c2=O)c1Cl` [Compound 149, (E)-3-(2,6-dichloro-3,5-dimethoxyphenyl)-1-(1-(4-(dimethylamino)but-2-enoyl)piperidin-4-yl)-7-(isopropylamino)-1,6-naphthyridin-2(1H)-one]: the melting point lay in the range of 243 to 246 °C.

`COc1cc(OC)c(Cl)c(N2Cc3cnc(Nc4ccn(C)n4)nc3N(C3CCN(C(=O)/C=C/CN(C)C)CC3)C2=O)c1Cl` [Compound 160, (E)-3-(2,6-dichloro-3,5-dimethoxyphenyl)-1-(1-(4-(dimethylamino)but-2-enoyl)piperidin-4-yl)-7-((1-methyl-1H-pyrazol-3-yl)amino)-3,4-dihydropyrimido[4,5-d]pyrimidin-2(1H)-one] came in with a melting point of 203 °C.

As for `COc1cc(OC)c(Br)c(-c2cc3cnc(Nc4ccccc4)nc3n(C3CCN(C(=O)/C=C/CN(C)C)CC3)c2=O)c1Br` [Compound 152, (E)-6-(2,6-dibromo-3,5-dimethoxyphenyl)-8-(1-(4-(dimethylamino)but-2-enoyl)piperidin-4-yl)-2-(phenylamino)pyrido[2,3-d]pyrimidin-7(8H)-one], the IC50 was 0.7 nM on FGFR1, 1.1 nM on FGFR2 and 2 nM on FGFR3. For the same molecule, the “reversible or irreversible inhibition of FGFR1 in cells” value in data set [2] is “potent irreversible inhibitors”.

In the case of `COc1cc(OC)c(Br)c(N2Cc3cnc(NC(C)C)nc3N(C3CCN(C(=O)/C=C/CN(C)C)CC3)C2=O)c1Br` [Compound 151, (E)-3-(2,6-dibromo-3,5-dimethoxyphenyl)-1-(1-(4-(dimethylamino)but-2-enoyl)piperidin-4-yl)-7-(isopropylamino)-3,4-dihydropyrimido[4,5-d]pyrimidin-2(1H)-one], the IC50 on FGFR1 amounted to 4.2 nM; on FGFR2, 3.5 nM; on FGFR3 it was 35 nM. Besides, the “reversible or irreversible inhibition of FGFR1 in cells” value in data set [2] is “reversible binding characteristics”.

For the molecule `CNc1ncc2c(n1)N(C1CCC(NC(=O)/C=C/CN(C)C)CC1)C(=O)N(c1c(Cl)c(OC)cc(OC)c1Cl)C2` (stereo not drawn) [Compound 126, (E)-N-(4-(3-(2,6-dichloro-3,5-dimethoxyphenyl)-7-(methylamino)-2-oxo-3,4-dihydropyrimido[4,5-d]pyrimidin-1(2H)-yl)cyclohexyl)-4-(dimethylamino)but-2-enamide], the IC50 was 0.5 nM on FGFR1, 1.5 nM on FGFR2 and 6.8 nM on FGFR3. In data set [1], the “reversible or irreversible inhibition of FGFR3 in cells” value is recorded as “potent reversible inhibitors”.

Consider `COc1cc(OC)c(Cl)c(-c2cc3cnc(NC(C)C)nc3n(C3CCN(C(=O)/C=C/CN(C)C)CC3)c2=O)c1Cl` [Compound 133, (E)-6-(2,6-dichloro-3,5-dimethoxyphenyl)-8-(1-(4-(dimethylamino)but-2-enoyl)piperidin-4-yl)-2-(isopropylamino)pyrido[2,3-d]pyrimidin-7(8H)-one], for which the IC50 on FGFR1 is 1 nM; at FGFR2, 1.5 nM; on FGFR3, 11 nM. In data set [2], the “reversible or irreversible inhibition of FGFR1 in cells” value is “potent irreversible inhibitors”. The “reversible or irreversible inhibition of FGFR3 in cells” value in data set [1] is “potent irreversible inhibitors”.
